In ChEMBL document CHEMBL5543059, “Discovery of anti-inflammatory natural flavonoids: Diverse scaffolds and promising leads for drug discovery” (Eur J Med Chem, 2023):
In brackets after ≈: the same amount, converted by molar mass.

How the values were obtained:
[1] = biological target: T1, Polyunsaturated fatty acid 5-lipoxygenase (Homo sapiens) (UniProt P09917); assay: Inhibition of 5-Lipoxygenase (unknown origin) at 30 uM relative to control
T1 sequence (whole entry): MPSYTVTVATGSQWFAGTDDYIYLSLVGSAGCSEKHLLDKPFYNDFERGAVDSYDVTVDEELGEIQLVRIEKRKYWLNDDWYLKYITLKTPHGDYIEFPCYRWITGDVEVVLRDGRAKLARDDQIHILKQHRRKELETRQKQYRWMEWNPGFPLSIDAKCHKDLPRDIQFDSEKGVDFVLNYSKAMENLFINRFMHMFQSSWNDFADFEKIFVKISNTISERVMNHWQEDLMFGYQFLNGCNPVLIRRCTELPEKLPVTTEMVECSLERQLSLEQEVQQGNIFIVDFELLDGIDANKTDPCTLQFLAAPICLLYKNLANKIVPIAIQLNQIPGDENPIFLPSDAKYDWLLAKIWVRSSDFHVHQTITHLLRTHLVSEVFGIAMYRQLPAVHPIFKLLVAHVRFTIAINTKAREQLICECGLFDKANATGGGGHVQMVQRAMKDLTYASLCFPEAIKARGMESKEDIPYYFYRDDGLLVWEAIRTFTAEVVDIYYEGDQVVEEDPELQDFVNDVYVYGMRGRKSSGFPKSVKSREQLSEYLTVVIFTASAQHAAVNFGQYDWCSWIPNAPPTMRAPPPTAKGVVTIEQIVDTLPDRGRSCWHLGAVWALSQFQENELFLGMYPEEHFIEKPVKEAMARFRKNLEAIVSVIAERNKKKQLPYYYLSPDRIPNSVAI

RAW264.7 [2] = assay: Anti-inflammatory activity in mouse RAW264.7 cells assessed as inhibition of LPS-induced NO production at 20 uM by Griess reagent based analysis relative to control; assay type: functional; parameters: scale not given: the % may be the effect or the level left
J774.A1 [3] = assay: Anti-inflammatory activity in mouse J774.A1 cells assessed as suppression of LPS-induced IL-6 production by ELISA analysis; assay type: functional, cell-based
BV-2 = assay: Anti-inflammatory activity in mouse BV-2 cells assessed as inhibition of LPS-induced NO production preincubated with compound for 1 hrs followed by LPS stimulation and measured after 24 hrs by Griess reagent based assay; assay type: functional, cell-based
Mus musculus [4] = assay: Antiinflammatory activity against TPA-induced mouse ear edema model assessed as reduction in NO production measured after 4 hrs; assay type: functional, organism-based
[5] = Antioxidant activity assessed as DPPH radical scavenging activity at 100 microg/ml relative to control; assay type: functional; conditions: dose 100.0 µg/ml
RAW264.7 [6] = assay: Inhibition of NF-kappaB activation in mouse RAW264.7 cells expressing luciferase gene at 100 microg/ml by luciferase reporter gene assay; assay type: cell-based; conditions: dose 100.0 µg/ml
[7] = Anti-inflammatory activity in LPS-stimulated human PBMC cells assessed as COX-2 inhibition at 100 ug/ml relative to control; assay type: functional; parameters: scale not given: the % may be the effect or the level left; conditions: dose 100 µg/ml
[8] = Anti-inflammatory activity in LPS-stimulated human PBMC cells assessed as 5-lipoxygenase inhibition at 100 ug/ml relative to control; assay type: functional; parameters: scale not given: the % may be the effect or the level left; conditions: dose 100 µg/ml
[9] = Anti-inflammatory activity in LPS-stimulated human PBMC cells assessed as inhibition of TNFalpha at 100 ug/ml relative to control; assay type: functional; parameters: scale not given: the % may be the effect or the level left; conditions: dose 100 µg/ml
RAW264.7 [10] = assay: Antiinflammatory activity in mouse RAW264.7 cells assessed as suppression of LPS-induced iNOS expression preincubated with compound for 1 hrs followed by LPS-stimulation and measured after 24 hrs by Western blot analysis; assay type: functional, cell-based
HEK293 = assay: Anti-inflammatory activity against TNFalpha-induced HEK293 cells assessed as inhibition of NF-kappaB activity pre-indubated for 1 hr followed by TNFalpha treatment measured for 5 hrs by luciferase based assay; assay type: functional, cell-based; conditions: Homo sapiens
Peritoneal macrophage [11] = assay: Antiinflammatory activity in mouse peritoneal macrophages assessed as fold reduction in LPS-induced TNFalpha level at 20 uM incubated for 4 hrs by ELISA method; assay type: functional
RAW264.7 [12] = assay: Anti-inflammatory activity in mouse RAW264.7 cells assessed as inhibition of LPS-induced iNOS mRNA expression; assay type: functional, cell-based
BMDM = assay: Antiinflammatory activity in LPS-stimulated mouse BMDM cells assessed as inhibition of NF-kappaB signalling pathway incubated for 3 hrs by Western blot analysis; assay type: functional, cell-based
Neutrophil [13] = assay: Inhibition of fMLF/CB-induced human Neutrophil activation assessed as reduction in elastase release; assay type: functional, cell-based
Neutrophil [14] = assay: Inhibition of fMLF/CB-induced human Neutrophil activation assessed as reduction in superoxide anion; assay type: functional, cell-based
Neutrophil [15] = assay: Inhibition of fMLF/CB-induced human Neutrophil activation assessed as reduction in superoxide anion at 10 uM relative to control; assay type: functional; parameters: scale not given: the % may be the effect or the level left
J774.A1 [16] = assay: Antiinflammatory activity against mouse J774.A1 cells assessed as inhibition of LPS-stimulated TNF-alpha level by ELISA method; assay type: functional, cell-based
RAW264.7 [17] = assay: Antiinflammatory activity against mouse RAW264.7 cells assessed as inhibition of LPS-stimulated TNF-alpha level by ELISA method; assay type: functional, cell-based
Mus musculus [18] = assay: Anti-inflammatory activity in mouse model of xylene-induced auricle edema assessed as inhibition of ear swelling at 50 mg/kg, IG pre-treated for 1 hr followed by xylene addition and measured after 1 hr relative to control; assay type: functional; parameters: scale not given: the % may be the effect or the level left
Peritoneal macrophage [19] = assay: Anti-inflammatory activity against LPS-stimulated mouse peritoneal macrophage assessed as reduction in nitric oxide production; assay type: functional, cell-based
[20] = Inhibition of TNF-alpha induced NF-kappaB activation in HEK293-A cells incubated for 15 mins by Western blot analysis; assay type: cell-based; conditions: Homo sapiens, HEK293, 0.25 h

Work on `COc1cc(-c2cc(=O)c3c(O)c(OC)c(O)cc3o2)c(O)cc1O` yielded an inhibition [1] of 46.9% and an Activity (RAW264.7 [2]) of 54%.

`COc1cc(O)c2c(=O)c(OC)c(-c3ccc(OC)c(O)c3)oc2c1` [AYANIN] gave an IC50 (J774.A1 [3]) of 17.8 µM and an IC50 (BV-2) of 25.1 µM.

`CC(C)=CCC/C(C)=C/Cc1c(O)cc2oc(-c3ccc(O)cc3)cc(=O)c2c1O` showed an IC50 (Mus musculus [4]) of 4.1 µg/mL (≈ 10.1 µM).

Compound `COc1cc(-c2cc(=O)c3c(O)cc(O)cc3o2)cc(O)c1OC` has an Activity [5] of 40%, an inhibition (RAW264.7 [6]) of 23.1% and an Activity [7] of 83.3%. The Activity [8] was 98.4% and the Activity [9] was 86.1%.

With `COc1cc(-c2cc(=O)c3c(O)cc(O)cc3o2)ccc1O` [CHRYSOERIOL] the IC50 (RAW264.7 [10]) was 3.1 µM.

`CC1=C(O)C(=O)C=C2C1=CC=C1[C@@]2(C)CC[C@@]2(C)[C@@H]3C[C@](C)(C(=O)O)CC[C@]3(C)CC[C@]12C` [CELASTROL] showed an IC50 (RAW264.7 [10]) of 1 µM.

In the case of `COc1c(O)cc(O)c2c(=O)cc(-c3ccccc3)oc12` [WOGONIN], the IC50 (HEK293) is reported as 28.1 µM.

For `CC(C)=CCc1c2c(c3occ(-c4ccc(O)cc4)c(=O)c3c1O)C=CC(C)(C)O2` [OSAJIN], the “fold change (FC)” value (Peritoneal macrophage [11]) was 1.8, the IC50 (RAW264.7 [12]) was 7.2 µg/mL (≈ 17.8 µM) and the IC50 (BMDM) was 12 µg/mL (≈ 29.7 µM).

Work on `CC(C)(O)c1ccccc1CC[C@@H](SCC1(CC(=O)O)CC1)c1cccc(/C=C/c2ccc3ccc(Cl)cc3n2)c1` [MONTELUKAST] yielded an IC50 (J774.A1 [3]) of 8.7 µM.

`O=c1cc(N2CCOCC2)oc2c(-c3ccccc3)cccc12` [LY-294002] gave an IC50 (Neutrophil [13]) of 3.2 µM, an IC50 (Neutrophil [14]) of 1.1 µM and an Activity (Neutrophil [15]) of 96.5%.

For `COc1cc(O)c2c(c1CC=C(C)C)OC(c1ccccc1)CC2=O` (centres undefined), the IC50 (J774.A1 [16]) was 35.5 µM and the IC50 (RAW264.7 [17]) was 41.2 µM.

`COc1ccc(-c2cc(=O)c3c(OC)c(OC)c(OC)cc3o2)cc1OC` [SINENSETIN] showed an Activity (Mus musculus [18]) of 58%.

With `CC(C)=CCc1c2c(c3occ(-c4ccc(O)c(O)c4)c(=O)c3c1O)C=CC(C)(C)O2` [POMIFERIN] the “fold change (FC)” value (Peritoneal macrophage [11]) was 1.5, the IC50 (RAW264.7 [12]) was 6.4 µg/mL (≈ 15.2 µM) and the IC50 (BMDM) was 13 µg/mL (≈ 30.9 µM).

In the case of `COc1ccc(-c2coc3cc(O)c(OC)c(O)c3c2=O)cc1` [IRISOLIDONE], the IC50 (Peritoneal macrophage [19]) is reported as 23.6 µM.

Work on `C=C1C(=O)O[C@@H]2C3O[C@]3(C)CC/C=C(\C)CC[C@@H]12` (some centres undefined) yielded an IC50 [20] of 1.5 µM and an IC50 (HEK293) of 1.5 µM.
